# Patent US10202361B2, “Pyridazinones as herbicides” (E I DU PONT DE NEMOURS AND COMPANY, priority 2014, dated 2019)
# Experiments:
# Assay in all cases: Test E pre-/postemergence greenhouse herbicide test
# Format in all cases: in vivo
# Details in all cases: Preemergence, scale 0 to 100
# [1] = tested on: poinsettia, wild (wild poinsettia, Euphorbia heterophylla)
# [2] = tested on: barnyardgrass (Echinochloa crus-galli)
# Text: (§1) Seeds of plant species selected from corn (Zea mays), soybean (Glycine max), lambsquarters (Chenopodium album), poinsettia, wild (wild poinsettia, Euphorbia heterophylla), pigweed, palmer (palmer pigweed, Amaranthus palmeri), waterhemp (common waterhemp, Amaranthus rudis), surinam grass (Brachiaria decumbens), crabgrass, large (large crabgrass Digitaria sanguinalis), crabgrass, Brazil (Brazilian crabgrass, Digitaria horizontalis), panicum, fall (fall panicum, Panicum dichotomiflorum), foxtail, giant (giant foxtail, Setaria faberii), foxtail, green (green foxtail, Setaria viridis), goosegrass (Eleusine indica), johnsongrass (Sorghum halepense), ragweed (common ragweed, Ambrosia elatior), barnyardgrass (Echinochloa crus-galli), sandbur (southern sandbur, Cenchrus echinatus), arrowleaf sida (Sida rhombifolia), ryegrass, Italian (Italian ryegrass, Lolium multiflorum), dayflower, VA (Virginia dayflower, Commelina virginica), field bindweed (Convolvulus arvensis), cocklebur (common cocklebur, Xanthium strumarium), morningglory (Ipomoea coccinea), nightshade (eastern black nightshade, Solanum ptycanthum), kochia (Kochia scoparia), nutsedge, yellow (yellow nutsedge, Cyperus esculentus), smartweed (ladysthumb smartweed, Polygonum persicaria), velvetleaf (Abutilon theophrasti), and beggarticks (hairy beggarticks, Bidens pilosa), were planted into a silt loam soil and treated preemergence with test chemicals formulated in a non-phytotoxic solvent mixture which included a surfactant.
# (§2) At the same time, plants from these crop and weed species and also waterhemp_RES1, (ALS & Triazine resistant common waterhemp, Amaranthus rudis), and waterhemp_RES2, (ALS & HPPD resistant common waterhemp, Amaranthus rudis) were planted in pots containing Redi-Earth® planting medium (Scotts Company, 14111 Scottslawn Road, Marysville, Ohio 43041) comprising spaghnum peat moss, vermiculite, wetting agent and starter nutrients were treated with postemergence applications of test chemicals formulated in the same manner. Plants ranged in height from 2 to 18 cm for postemergence treatments (1- to 4-leaf stage). Treated plants and controls were maintained in a greenhouse for 14 to 21 d, after which time all species were compared to controls and visually evaluated. Plant response ratings, summarized in Table E, are based on a scale of 0 to 100 where 0 is no effect and 100 is complete control. A dash (-) response means no test result.
# [3] = tested on: beggarticks (hairy beggarticks, Bidens pilosa)
# Text: as §1, §2
# corn (Zea mays) = tested on: corn (Zea mays)
# Text: as §1, §2
# [4] = tested on: foxtail, green (green foxtail, Setaria viridis)
# Text: as §1, §2
# [5] = tested on: johnsongrass (Sorghum halepense)
# Text: as §1, §2
# kochia (Kochia scoparia) = tested on: kochia (Kochia scoparia)
# Text: as §1, §2
# [6] = tested on: lambsquarters (Chenopodium album)
# Text: as §1, §2
# [7] = tested on: morningglory (Ipomoea coccinea)
# Text: as §1, §2
# [8] = tested on: nightshade (eastern black nightshade, Solanum ptycanthum)
# Text: as §1, §2
# [9] = tested on: panicum, fall (fall panicum, Panicum dichotomiflorum)
# Text: as §1, §2
# [10] = tested on: pigweed, palmer (palmer pigweed, Amaranthus palmeri)
# Text: as §1, §2
# [11] = tested on: ragweed (common ragweed, Ambrosia elatior)
# Text: as §1, §2
# [12] = tested on: ryegrass, Italian (Italian ryegrass, Lolium multiflorum)
# Text: as §1, §2
# soybean (Glycine max) = tested on: soybean (Glycine max)
# Text: as §1, §2
# [13] = tested on: velvetleaf (Abutilon theophrasti)
# Text: as §1, §2
smiles,measurement,setting,value
"CCOc1cc(=O)n(-c2ccc(F)cc2)nc1Cc1ccnc(C(F)(F)F)c1 [Compound 25, 5-ethoxy-2-(4-fluorophenyl)-6-[[2-(trifluoromethyl)-4-pyridinyl]methyl]-3 (2H)-pyridazinone]","Plant response rating: Poinsettia, Wild",[1]; 8 g ai/ha,0
same,"Plant response rating: Poinsettia, Wild",[1]; 16 g ai/ha,0
same,"Plant response rating: Poinsettia, Wild",[1]; 31 g ai/ha,0
same,"Plant response rating: Poinsettia, Wild",[1]; 62 g ai/ha,50
same,"Plant response rating: Poinsettia, Wild",[1]; 125 g ai/ha,10
same,Plant response rating: Barnyardgrass,[2]; 8 g ai/ha,0
same,Plant response rating: Barnyardgrass,[2]; 16 g ai/ha,5
same,Plant response rating: Barnyardgrass,[2]; 31 g ai/ha,15
same,Plant response rating: Barnyardgrass,[2]; 62 g ai/ha,35
same,Plant response rating: Barnyardgrass,[2]; 125 g ai/ha,60
same,Plant response rating: Beggarticks,[3]; 8 g ai/ha,0
same,Plant response rating: Beggarticks,[3]; 16 g ai/ha,0
same,Plant response rating: Beggarticks,[3]; 31 g ai/ha,0
same,Plant response rating: Beggarticks,[3]; 62 g ai/ha,0
same,Plant response rating: Beggarticks,[3]; 125 g ai/ha,15
same,Plant response rating: Corn,corn (Zea mays); 8 g ai/ha,0
same,Plant response rating: Corn,corn (Zea mays); 16 g ai/ha,10
same,Plant response rating: Corn,corn (Zea mays); 31 g ai/ha,25
same,Plant response rating: Corn,corn (Zea mays); 62 g ai/ha,40
same,Plant response rating: Corn,corn (Zea mays); 125 g ai/ha,35
same,"Plant response rating: Foxtail, Green",[4]; 8 g ai/ha,0
same,"Plant response rating: Foxtail, Green",[4]; 16 g ai/ha,5
same,"Plant response rating: Foxtail, Green",[4]; 31 g ai/ha,35
same,"Plant response rating: Foxtail, Green",[4]; 62 g ai/ha,90
same,"Plant response rating: Foxtail, Green",[4]; 125 g ai/ha,100
same,Plant response rating: Johnsongrass,[5]; 8 g ai/ha,0
same,Plant response rating: Johnsongrass,[5]; 16 g ai/ha,0
same,Plant response rating: Johnsongrass,[5]; 31 g ai/ha,10
same,Plant response rating: Johnsongrass,[5]; 62 g ai/ha,35
same,Plant response rating: Johnsongrass,[5]; 125 g ai/ha,65
same,Plant response rating: Kochia,kochia (Kochia scoparia); 8 g ai/ha,40
same,Plant response rating: Kochia,kochia (Kochia scoparia); 16 g ai/ha,50
same,Plant response rating: Kochia,kochia (Kochia scoparia); 31 g ai/ha,70
same,Plant response rating: Kochia,kochia (Kochia scoparia); 62 g ai/ha,100
same,Plant response rating: Kochia,kochia (Kochia scoparia); 125 g ai/ha,95
same,Plant response rating: Lambsquarters,[6]; 8 g ai/ha,65
same,Plant response rating: Lambsquarters,[6]; 16 g ai/ha,98
same,Plant response rating: Lambsquarters,[6]; 31 g ai/ha,100
same,Plant response rating: Lambsquarters,[6]; 62 g ai/ha,100
same,Plant response rating: Lambsquarters,[6]; 125 g ai/ha,100
same,Plant response rating: Morningglory,[7]; 8 g ai/ha,0
same,Plant response rating: Morningglory,[7]; 16 g ai/ha,0
same,Plant response rating: Morningglory,[7]; 31 g ai/ha,5
same,Plant response rating: Morningglory,[7]; 62 g ai/ha,50
same,Plant response rating: Morningglory,[7]; 125 g ai/ha,65
same,Plant response rating: Nightshade,[8]; 8 g ai/ha,5
same,Plant response rating: Nightshade,[8]; 16 g ai/ha,50
same,Plant response rating: Nightshade,[8]; 31 g ai/ha,80
same,Plant response rating: Nightshade,[8]; 62 g ai/ha,98
same,Plant response rating: Nightshade,[8]; 125 g ai/ha,100
same,"Plant response rating: Panicum, Fall",[9]; 8 g ai/ha,0
same,"Plant response rating: Panicum, Fall",[9]; 16 g ai/ha,35
same,"Plant response rating: Panicum, Fall",[9]; 31 g ai/ha,50
same,"Plant response rating: Panicum, Fall",[9]; 62 g ai/ha,100
same,"Plant response rating: Panicum, Fall",[9]; 125 g ai/ha,100
same,"Plant response rating: Pigweed, Palmer",[10]; 8 g ai/ha,0
same,"Plant response rating: Pigweed, Palmer",[10]; 16 g ai/ha,95
same,"Plant response rating: Pigweed, Palmer",[10]; 31 g ai/ha,95
same,"Plant response rating: Pigweed, Palmer",[10]; 62 g ai/ha,100
same,"Plant response rating: Pigweed, Palmer",[10]; 125 g ai/ha,100
same,Plant response rating: Ragweed,[11]; 8 g ai/ha,0
same,Plant response rating: Ragweed,[11]; 16 g ai/ha,0
same,Plant response rating: Ragweed,[11]; 31 g ai/ha,0
same,Plant response rating: Ragweed,[11]; 62 g ai/ha,20
same,Plant response rating: Ragweed,[11]; 125 g ai/ha,50
same,"Plant response rating: Ryegrass, Italian",[12]; 8 g ai/ha,0
same,"Plant response rating: Ryegrass, Italian",[12]; 16 g ai/ha,30
same,"Plant response rating: Ryegrass, Italian",[12]; 31 g ai/ha,30
same,"Plant response rating: Ryegrass, Italian",[12]; 62 g ai/ha,40
same,"Plant response rating: Ryegrass, Italian",[12]; 125 g ai/ha,50
same,Plant response rating: Soybean,soybean (Glycine max); 8 g ai/ha,0
same,Plant response rating: Soybean,soybean (Glycine max); 16 g ai/ha,0
same,Plant response rating: Soybean,soybean (Glycine max); 31 g ai/ha,0
same,Plant response rating: Soybean,soybean (Glycine max); 62 g ai/ha,20
same,Plant response rating: Soybean,soybean (Glycine max); 125 g ai/ha,30
same,Plant response rating: Velvetleaf,[13]; 8 g ai/ha,0
same,Plant response rating: Velvetleaf,[13]; 16 g ai/ha,20
same,Plant response rating: Velvetleaf,[13]; 31 g ai/ha,0
same,Plant response rating: Velvetleaf,[13]; 62 g ai/ha,30
same,Plant response rating: Velvetleaf,[13]; 125 g ai/ha,80
